In publication PMC11246513, “Exploring bat-inspired cyclic tryptophan diketopiperazines as ABCB1 Inhibitors” (Communications Chemistry, 2024):

What was measured:
bat ABCB1 [1] = molecular target: T1, bat ABCB1 (Pteropus alecto, UniProt L5JS44); test: rhodamine […] efflux inhibition, flow cytometry, PaKiT03 cells with ABCB1 KO control; format: cell-based
T1 construct: gene PAL_GLEAN10013639; endogenous ABCB1 in PaKiT03 cells

ABCB1 [2] = molecular target: T2, ABCB1 (Homo sapiens, UniProt P08183); test: rhodamine […] efflux inhibition, flow cytometry, HEK293T ABCB1 cells; format: cell-based; set-up: human ABCB1 (ABCB1-TEV-His-FLAG) stably expressed in HEK293T
ABCB1 [3] = molecular target: T2, ABCB1; format: biochemical; set-up: human ABCB1-FLAG, purified and reconstituted into egg lecithin liposome
bat ABCB1 [4] = molecular target: T1, bat ABCB1; test: rhodamine […] efflux inhibition, flow cytometry, PaKiT03 cells; format: cell-based

T2 sequence (P08183 whole entry): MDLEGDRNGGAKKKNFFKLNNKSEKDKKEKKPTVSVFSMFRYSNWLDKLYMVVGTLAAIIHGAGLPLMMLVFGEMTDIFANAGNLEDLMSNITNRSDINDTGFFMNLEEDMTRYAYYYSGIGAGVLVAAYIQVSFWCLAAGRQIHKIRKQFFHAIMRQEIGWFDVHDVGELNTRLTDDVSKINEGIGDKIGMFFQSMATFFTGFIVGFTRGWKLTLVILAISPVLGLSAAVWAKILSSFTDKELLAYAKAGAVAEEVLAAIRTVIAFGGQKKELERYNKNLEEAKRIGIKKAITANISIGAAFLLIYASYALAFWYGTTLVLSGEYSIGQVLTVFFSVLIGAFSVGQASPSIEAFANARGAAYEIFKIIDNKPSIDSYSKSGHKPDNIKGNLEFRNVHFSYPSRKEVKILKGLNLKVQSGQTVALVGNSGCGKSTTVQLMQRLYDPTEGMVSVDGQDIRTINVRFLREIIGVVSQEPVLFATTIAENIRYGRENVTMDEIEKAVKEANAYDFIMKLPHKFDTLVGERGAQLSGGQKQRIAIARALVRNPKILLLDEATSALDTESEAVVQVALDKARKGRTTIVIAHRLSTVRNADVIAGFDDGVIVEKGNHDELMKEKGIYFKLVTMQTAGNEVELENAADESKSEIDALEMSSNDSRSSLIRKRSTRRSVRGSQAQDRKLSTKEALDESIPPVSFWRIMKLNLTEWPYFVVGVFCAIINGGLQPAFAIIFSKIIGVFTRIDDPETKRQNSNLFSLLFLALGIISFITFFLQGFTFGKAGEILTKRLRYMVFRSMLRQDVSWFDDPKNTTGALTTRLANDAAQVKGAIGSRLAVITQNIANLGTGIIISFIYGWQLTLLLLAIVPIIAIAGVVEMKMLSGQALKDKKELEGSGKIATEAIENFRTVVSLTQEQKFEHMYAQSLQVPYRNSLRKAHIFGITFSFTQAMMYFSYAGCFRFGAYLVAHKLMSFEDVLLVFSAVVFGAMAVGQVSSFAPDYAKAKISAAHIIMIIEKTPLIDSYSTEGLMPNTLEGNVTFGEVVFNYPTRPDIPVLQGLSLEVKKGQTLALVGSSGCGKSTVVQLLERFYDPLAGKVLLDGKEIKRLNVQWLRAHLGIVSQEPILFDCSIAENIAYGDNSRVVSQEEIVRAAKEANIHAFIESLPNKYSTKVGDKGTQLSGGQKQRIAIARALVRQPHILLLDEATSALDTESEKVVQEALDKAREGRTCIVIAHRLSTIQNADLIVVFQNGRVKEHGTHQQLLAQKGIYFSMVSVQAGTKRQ
T1 sequence (L5JS44 1-1308): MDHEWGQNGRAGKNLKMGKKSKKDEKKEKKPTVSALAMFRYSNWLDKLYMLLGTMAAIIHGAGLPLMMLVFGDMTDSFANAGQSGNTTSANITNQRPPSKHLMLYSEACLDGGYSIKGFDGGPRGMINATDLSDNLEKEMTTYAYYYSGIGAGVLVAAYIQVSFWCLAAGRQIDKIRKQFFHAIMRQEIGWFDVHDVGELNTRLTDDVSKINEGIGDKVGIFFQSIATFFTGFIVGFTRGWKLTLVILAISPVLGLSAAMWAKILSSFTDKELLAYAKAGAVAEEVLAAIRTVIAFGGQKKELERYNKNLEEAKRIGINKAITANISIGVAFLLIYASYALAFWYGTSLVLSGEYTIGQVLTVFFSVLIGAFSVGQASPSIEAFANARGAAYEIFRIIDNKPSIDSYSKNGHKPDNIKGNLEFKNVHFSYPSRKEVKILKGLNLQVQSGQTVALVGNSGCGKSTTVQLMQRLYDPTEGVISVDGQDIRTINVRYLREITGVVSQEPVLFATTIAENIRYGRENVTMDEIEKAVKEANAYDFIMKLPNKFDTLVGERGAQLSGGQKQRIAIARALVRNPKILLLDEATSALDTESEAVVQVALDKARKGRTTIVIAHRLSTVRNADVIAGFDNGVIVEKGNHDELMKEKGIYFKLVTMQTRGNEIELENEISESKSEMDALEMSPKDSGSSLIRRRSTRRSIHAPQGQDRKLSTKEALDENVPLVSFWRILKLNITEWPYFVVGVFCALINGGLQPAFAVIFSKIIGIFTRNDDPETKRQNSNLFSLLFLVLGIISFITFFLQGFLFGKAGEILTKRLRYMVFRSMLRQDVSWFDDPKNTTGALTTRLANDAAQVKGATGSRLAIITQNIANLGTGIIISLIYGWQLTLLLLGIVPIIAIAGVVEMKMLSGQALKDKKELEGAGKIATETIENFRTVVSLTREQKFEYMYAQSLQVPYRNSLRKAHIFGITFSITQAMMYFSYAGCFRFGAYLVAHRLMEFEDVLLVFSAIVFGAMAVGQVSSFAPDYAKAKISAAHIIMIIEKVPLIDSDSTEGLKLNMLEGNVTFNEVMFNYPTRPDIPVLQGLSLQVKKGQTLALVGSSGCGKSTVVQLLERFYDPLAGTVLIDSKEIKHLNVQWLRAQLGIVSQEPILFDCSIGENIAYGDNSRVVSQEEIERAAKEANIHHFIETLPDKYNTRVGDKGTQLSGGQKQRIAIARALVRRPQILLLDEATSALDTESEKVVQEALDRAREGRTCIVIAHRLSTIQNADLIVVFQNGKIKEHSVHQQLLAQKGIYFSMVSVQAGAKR

Structure (SMILES)	IC50 (bat ABCB1 [1]) [nM]	IC50 (ABCB1 [2]) [nM]	ATPase stimulation of purified reconstituted ABCB1 (ADP by HPLC); supported by d (ABCB1 [3])	IC50 (bat ABCB1 [4]) [nM]
O=C1N[C@@H](Cc2c[nH]c3ccccc23)C(=O)N2[C@H]1C[C@@]1(Cc3ccccc3)c3ccccc3N(Cc3ccccc3)[C@@H]21 [C3N-Dbn-Trp2]	900	5900		
O=C1N[C@@H](Cc2c[nH]c3ccccc23)C(=O)N[C@H]1Cc1c[nH]c2ccccc12 [Cyclo-(L-Trp-L-Trp)]			~ 2 mM	
COc1cc2c(cc1OC)CN(CCc1ccc(NC(=O)c3cc(OC)c(OC)cc3NC(=O)c3cnc4ccccc4c3)cc1)CC2 [tariquidar]		16		2
Cn1cc(C[C@@H]2NC(=O)[C@H](Cc3cn(C)c4ccccc34)NC2=O)c2ccccc21 [Cyclo-(L-1-methyl-Trp-L-1-methyl-Trp)]			Cyclo-(L-1-methyl-Trp-L-1-methyl-Trp) consumed larger amounts of ATP than Cyclo-(L-Trp-L-Trp) in the in vitro ATPase assay	
